According to US9394305B2, “Substituted imidazo[1,2-a]pyridine compounds as tropomyosin receptor kinase a (TrkA) inhibitors” (Dr. Reddy's Laboratories Ltd., priority 2014, dated 2016):

biological target: T1, TrkA kinase (Homo sapiens, UniProt P04629); assay: In vitro TrkA inhibitory activity using TR-FRET assay; type: biochemical; details: 5 ng TrkA, 500 μM ATP, values given as bins, read-out: TrkA inhibition in-vitro IC50
T1 construct: purchased Upstate, USA
Protocol: Compounds were screened in the TR-FRET assay with TrkA kinase. 5 ng of TrkA [Upstate, USA] kinase was used for assay. The compound was incubated with the kinase for 30 minutes at 20-35° C. After the incubation, substrate mix [40 nM Ultra light poly GT (Perkin Elmer, USA) and 500 μM ATP] was added. The above reaction was stopped by the addition of 40 mM EDTA after 30 minutes. The Eu-labelled antiphospho-tyrosine antibody [Perkin Elmer, USA] was added at 0.5 nM and the fluorescence emission at 615 nm/665 nm [excitation at 340 nm] was measured. The compounds were initially screened at 100 nM, 1 μM and 10 μM concentrations. The potent compounds with >25% inhibition at 1 μM of TrkA were taken for the full dose response studies. The final DMSO concentration in the assay was […]. For IC50 determination, ⅓^rd serial dilution was made from the 20 mM DMSO stock solution. 2 μl of these were transferred to the test wells containing 20 μl reaction mixture [Total reaction volume 22 μl]. The fluorescence was measured in Perkin Elmer Wallac 1420 Multilabel Counter Victor 3. The IC50 was determined by fitting the dose response data to a sigmoidal curve fitting equation using GraphPad Prism software version 5.

T1 sequence (P04629 33-796): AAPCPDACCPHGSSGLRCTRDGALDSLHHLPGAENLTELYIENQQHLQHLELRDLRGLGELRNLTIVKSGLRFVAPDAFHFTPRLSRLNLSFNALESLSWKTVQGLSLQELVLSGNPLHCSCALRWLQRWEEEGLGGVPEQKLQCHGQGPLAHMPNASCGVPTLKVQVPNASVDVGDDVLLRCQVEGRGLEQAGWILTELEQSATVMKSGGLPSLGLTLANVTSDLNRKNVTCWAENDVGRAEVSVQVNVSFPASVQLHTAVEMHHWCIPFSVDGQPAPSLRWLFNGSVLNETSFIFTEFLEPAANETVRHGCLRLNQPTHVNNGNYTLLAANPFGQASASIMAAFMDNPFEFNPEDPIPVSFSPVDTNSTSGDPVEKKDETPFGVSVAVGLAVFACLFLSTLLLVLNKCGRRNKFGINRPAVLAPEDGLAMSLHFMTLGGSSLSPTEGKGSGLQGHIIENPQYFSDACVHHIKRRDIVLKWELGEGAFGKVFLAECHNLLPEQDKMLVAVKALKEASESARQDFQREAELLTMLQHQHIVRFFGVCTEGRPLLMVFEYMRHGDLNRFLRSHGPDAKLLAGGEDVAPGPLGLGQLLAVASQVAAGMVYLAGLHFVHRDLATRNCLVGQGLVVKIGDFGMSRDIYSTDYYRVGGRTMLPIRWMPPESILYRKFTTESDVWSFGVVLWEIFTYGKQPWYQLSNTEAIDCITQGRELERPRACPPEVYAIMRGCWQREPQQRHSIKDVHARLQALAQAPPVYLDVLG

| Compound | IC50 [nM] |
| --- | --- |
| O=C(O)CNC(=O)c1cnc2ccc(N3CCC[C@H]3c3cc(F)ccc3F)cn12 (single isomer, unassigned) [Example 19, 2-(6-(2-(2,5-difluorophenyl)pyrrolidin-1-yl)imidazo[1,2-a]pyridine-3-carboxamido)acetic acid] | 100 to 500 |
| CCN(C)S(=O)(=O)NC(=O)c1cnc2ccc(N3CCCC3c3cc(F)ccc3O[C@@H]3CCOC3)cn12 (single isomer, unassigned) [Example 63] | ≤ 50 |
| CCN(C)S(=O)(=O)NC(=O)c1cnc2ccc(N3CCCC3c3cc(F)cc4c3OCCO4)cn12 (single isomer, unassigned) [Example 72, N-(N-ethyl-N-methylsulfamoyl)-6-(2-(7-fluoro-2,3-dihydrobenzo [b][1,4]dioxin-5-yl)pyrrolidin-1-yl)imidazo[1,2-a]pyridine-3-carboxamide] | 100 to 500 |
| O=C(Nc1ccc(F)cc1)c1cnc2ccc(N3CCCC3c3cc(F)ccc3F)cn12 (stereo not shown) [Example 1, 6-(2-(2,5-difluorophenyl)pyrrolidin-1-yl)-N-(4-fluorophenyl)imidazo[1,2-a]pyridine-3-carboxamide] | ≤ 50 |
| O=C(c1cnc2ccc(N3CCCC3c3cc(F)ccc3F)cn12)N1CC[C@H](O)C1 (stereo partly drawn) [Example 3, (6-(2-(2,5-difluorophenyl)pyrrolidin-1-yl)imidazo[1,2-a]pyridin-3-yl)((S)-3-hydroxypyrrolidin-1-yl)methanone] | ≤ 50 |
| O=C(c1cnc2ccc(N3CCCC3c3cc(F)ccc3F)cn12)N1CC(O)C1 (stereo not shown) [Example 4, (6-(2-(2,5-difluorophenyl)pyrrolidin-1-yl)imidazo[1,2-a]pyridin-3-yl)(3-hydroxyazetidin-1-yl)methanone] | ≤ 50 |
| O=C(NC(CO)CO)c1cnc2ccc(N3CCCC3c3cc(F)ccc3F)cn12 (stereo not shown) [Example 5, 6-(2-(2,5-difluorophenyl)pyrrolidin-1-yl)-N-(1,3-dihydroxypropan-2-yl)imidazo[1,2-a]pyridine-3-carboxamide] | ≤ 50 |
| CN(C)C(=O)c1cnc2ccc(N3CCCC3c3cc(F)ccc3F)cn12 (stereo not shown) [Example 8, 6-(2-(2,5-difluorophenyl)pyrrolidin-1-yl)-N,N-dimethylimidazo[1,2-a]pyridine-3-carboxamide] | 100 to 500 |
| O=C(c1ccc(F)cc1)c1cnc2ccc(N3CCCC3c3cc(F)ccc3F)cn12 (stereo not shown) [Example 10, (6-(2-(2,5-difluorophenyl)pyrrolidin-1-yl)imidazo[1,2-a]pyridin-3-yl)(4-fluorophenyl)methanone] | 50 to 100 |
| O=C(NC[C@H](O)CO)c1cnc2ccc(N3CCC[C@@H]3c3cc(F)ccc3F)cn12 [Example 25, 6-((R)-2-(2,5-difluorophenyl)pyrrolidin-1-yl)-N—((S)-2,3-dihydroxypropyl)imidazo[1,2-a]pyridine-3-carboxamide] | 50 to 100 |
| C[C@@H](CO)NC(=O)c1cnc2ccc(N3CCC[C@@H]3c3cc(F)ccc3F)cn12 [Example 28, 6-((R)-2-(2,5-difluorophenyl)pyrrolidin-1-yl)-N—((S)-1-hydroxypropan-2-yl)imidazo[1,2-a]pyridine-3-carboxamide] | 100 to 500 |
| CC(C)(C)S(=O)(=O)NC(=O)c1cnc2ccc(N3CCC[C@@H]3c3cc(F)ccc3F)cn12 [Example 31, (R)—N-(tert-butylsulfonyl)-6-(2-(2,5-difluorophenyl)pyrrolidin-1-yl)imidazo[1,2-a]pyridine-3-carboxamide] | 100 to 500 |
| CC1(S(=O)(=O)NC(=O)c2cnc3ccc(N4CCC[C@@H]4c4cc(F)ccc4F)cn23)CC1 [Example 32, (R)-6-(2-(2,5-difluorophenyl)pyrrolidin-1-yl)-N-((1-methylcyclopropyl)sulfonyl)imidazo[1,2-a]pyridine-3-carboxamide] | 50 to 100 |
| O=C(NS(=O)(=O)c1ccc(N2CC[C@H](O)C2)nc1)c1cnc2ccc(N3CCC[C@@H]3c3cc(F)ccc3F)cn12 [Example 33, 6-((R)-2-(2,5-difluorophenyl)pyrrolidin-1-yl)-N-((6-((S)-3-hydroxypyrrolidin-1-yl)pyridin-3-yl)sulfonyl)imidazo[1,2-a]pyridine-3-carboxamide] | 100 to 500 |

The remaining lines, values ahead:

| IC50 [nM] | Compound |
| --- | --- |
| 100 to 500 | CCOC(=O)CNC(=O)c1cnc2ccc(N3CCC[C@H]3c3cc(F)ccc3F)cn12 (single isomer, unassigned) [Example 18, Ethyl 2-(6-(2-(2,5-difluorophenyl)pyrrolidin-1-yl)imidazo[1,2-a]pyridine-3-carboxamido)acetate] |
| ≤ 50 | CC1(S(=O)(=O)NC(=O)c2cnc3ccc(N4CCCCC4c4cc(F)ccc4F)cn23)CC1 (single isomer, unassigned) [Example 69, 6-(2-(2,5-difluorophenyl)piperidin-1-yl)-N-((1-methylcyclo-propyl)sulfonyl)imidazo[1,2-a]pyridine-3-carboxamide] |
| 100 to 500 | CN(CCF)S(=O)(=O)NC(=O)c1cnc2ccc(N3CCCC3c3cc(F)cc4c3OCCO4)cn12 (single isomer, unassigned) [Example 71, 6-(2-(7-fluoro-2,3-dihydrobenzo[b][1,4]dioxin-5-yl)pyrrolidin-1-yl)-N-(N-(2-fluoroethyl)-N-methylsulfamoyl)imidazo[1,2-a]pyridine-3-carboxamide] |
| ≤ 50 | O=C(c1cnc2ccc(N3CCCC3c3cc(F)ccc3F)cn12)N1CC(O)C1 (single isomer, unassigned) [Example 73, (6-(2-(2,5-difluorophenyl)pyrrolidin-1-yl)imidazo[1,2-a]pyridine-3 yl)(3-hydroxyazetidin-1-yl)methanone] |
| 100 to 500 | O=C(Nc1cnc2ccc(N3CCCC3c3cc(F)ccc3F)cn12)N1CC[C@H](O)C1 (stereo partly shown) [Example 2, (3 S)—N-(6-(2-(2,5-difluorophenyl)pyrrolidin-1-yl)imidazo[1,2-a]pyridin-3-yl)-3-hydroxypyrrolidine-1-carboxamide] |
| 100 to 500 | CC(CO)(CO)NC(=O)c1cnc2ccc(N3CCC[C@@H]3c3cc(F)ccc3F)cn12 [Example 24, (R)-6-(2-(2,5-difluorophenyl)pyrrolidin-1-yl)-N-(1,3-dihydroxy-2-methylpropan-2-yl)imidazo[1,2-a]pyridine-3-carboxamide] |
| 100 to 500 | O=C(NC1CCOCC1)c1cnc2ccc(N3CCC[C@@H]3c3cc(F)ccc3F)cn12 [Example 30, (R)-6-(2-(2,5-difluorophenyl)pyrrolidin-1-yl)-N-(tetrahydro-2H-pyran-4-yl)imidazo[1,2-a]pyridine-3-carboxamide] |

same assay, conditions: 5 ng TrkA, 500 μM ATP, values given as bins, read-out: TrkA inhibitory activity in-vitro IC50

| Compound | IC50 [nM] |
| --- | --- |
| CCN(C)S(=O)(=O)NC(=O)c1cnc2ccc(N3CCCC3c3cc(F)ccc3O[C@@H]3CCOC3)cn12 (single isomer, unassigned) [Example 64] | 1000 to 10000 |
| CCN(C)S(=O)(=O)NC(=O)c1cnc2ccc(N3CCCCC3c3cc(F)ccc3F)cn12 (single isomer, unassigned) [Example 70, 6-(2-(2,5-difluorophenyl)piperidin-1-yl)-N-(N-ethyl-N-methyl-sulfamoyl)imidazo[1,2-a]pyridine-3-carboxamide] | 1000 to 10000 |
| O=C(c1cnc2ccc(N3CCCC3c3cc(F)ccc3F)cn12)N1CCOCC1 (stereo not shown) [Example 6, (6-(2-(2,5-difluorophenyl)pyrrolidin-1-yl)imidazo[1,2-a]pyridin-3-yl)(morpholino)methanone] | 1000 to 10000 |
| CN(C)C(=O)Nc1cnc2ccc(N3CCCC3c3cc(F)ccc3F)cn12 (stereo not shown) [Example 11, 3-(6-(2-(2,5-difluorophenyl)pyrrolidin-1-yl)imidazo[1,2-a]pyridin-3-yl)-1,1-dimethylurea] | 1000 to 10000 |

Next, values leading:

| IC50 [nM] | Compound |
| --- | --- |
| 1000 to 10000 | CC1(S(=O)(=O)NC(=O)c2cnc3ccc(N4CCCCC4c4cc(F)cc5c4OCCO5)cn23)CC1 (single isomer, unassigned) [Example 52, 6-(2-(7-fluoro-2,3-dihydrobenzo[b][1,4]dioxin-5-yl)piperidin-1-yl)-N-((1-methylcyclopropyl)sulfonyl)imidazo[1,2-a]pyridine-3-carboxamide] |
| 1000 to 10000 | CC(C)(C)S(=O)(=O)NC(=O)c1cnc2ccc(N3CCCC3c3cc(F)ccc3O[C@@H]3CCOC3)cn12 (single isomer, unassigned) [Example 66] |
| 1000 to 10000 | CN1CCN(C(=O)c2cnc3ccc(N4CCCC4c4cc(F)ccc4F)cn23)CC1 (stereo not shown) [Example 9, (6-(2-(2,5-difluorophenyl)pyrrolidin-1-yl)imidazo[1,2-a]pyridin-3-yl)(4-methylpiperazin-1-yl)methanone] |

same assay, conditions: bin with mixed units (lower bound nM, upper bound μM), read-out: TrkA inhibitory activity in-vitro IC50

| Compound | IC50 [nM] |
| --- | --- |
| O=C(NC12CC3CC(CC(O)(C3)C1)C2)c1cnc2ccc(N3CCC[C@@H]3c3cc(F)ccc3F)cn12 [Example 23, 6-((R)-2-(2,5-difluorophenyl)pyrrolidin-1-yl)-N-((1r,3S,5R,7S)-3-hydroxyadamantan-1-yl)imidazo[1,2-a]pyridine-3-carboxamide] | 500 to 1000 |
| CC1(O)CN(C(=O)c2cnc3ccc(N4CCC[C@@H]4c4cc(F)ccc4F)cn23)C1 [Example 26, (R)-(6-(2-(2,5-difluorophenyl)pyrrolidin-1-yl)imidazo[1,2-a]pyridin-3-yl)(3-hydroxy-3-methylazetidin-1-yl)methanone] | 500 to 1000 |
| O=C(NN1CCCCC1)c1cnc2ccc(N3CCC[C@@H]3c3cc(F)ccc3F)cn12 [Example 27, (R)-6-(2-(2,5-difluorophenyl)pyrrolidin-1-yl)-N-(piperidin-1-yl)imidazo[1,2-a]pyridine-3-carboxamide] | 500 to 1000 |
